Earlier results as cited in publication PMC7395068, “The evolution of strategies to minimise the risk of human drug-induced liver injury (DILI) in drug discovery and development” (Archives of Toxicology, 2020).
Like-named read-outs stand apart in the source and are kept apart here. *1 amine or outer side, *2 acyl side, *3 side chain or, on linkers, in order; H or OH if unused. Where a SMILES comes first, the peptide text is derived from it. Bridges are numbered along the chain shown (N, C = ends). [ ]: non-standard residue; d: D form. The star is where a group is joined. hTyr(3S-OH,4S-OH,3'-OSO3H) = N[C@H](C(=O)O)[C@H](O)[C@@H](O)c1ccc(O)c(OS(=O)(=O)O)c1; Orn(4R-OH,5R-OH) = O=C([C@H](C[C@@H](O)[C@@H](O)N[*:3])N[*:1])[*:2]; Pro(3S-OH,4S-Me) = C[C@H]1CN[C@H](C(=O)O)[C@H]1O; X1 = CCCCCOc1ccc(-c2cc(-c3ccc(C(=O)*)cc3)no2)cc1; Gln(3R-OH) = NC(=O)C[C@@H](O)[C@H](N)C(=O)O; Hyp = O=C(O)[C@@H]1C[C@@H](O)CN1

Conditions: cited from earlier work
[1] = binary in vivo human DILI call, ref Chen 2016
[2] = human DILI, LTKB DILIrank category, ref Chen 2016
[3] = binary in vivo DILI call given beside the severity category, ref Chen 2016
[4] = human DILI concern category (LTKB DILIrank), ref Chen 2016

CN1c2c(nc(N)[nH]c2=O)NC[C@@H]1CNc1ccc(C(=O)N[C@@H](CCC(=O)O)C(=O)O)cc1 [levomefolate calcium]
DILI +VE (5-8), DILI -VE (-4) (in vivo): -VE
DILI severity category (in vivo): vNo-DILI-Concern

C#C[C@]1(O)CC[C@H]2[C@@H]3CCC4=CC(=O)CC[C@@H]4[C@H]3CC[C@@]21CC [levonorgestrel]
DILI +VE (5-8), DILI -VE (-4) (in vivo): -VE
DILI severity category (in vivo): vNo-DILI-Concern

CN1CC[C@]23CCCC[C@H]2[C@H]1Cc1ccc(O)cc13 [levorphanol]
DILI +VE (5-8), DILI -VE (-4) [1]: -VE
DILI severity category [2]: vNo-DILI-Concern

N[C@@H](Cc1cc(I)c(Oc2cc(I)c(O)c(I)c2)c(I)c1)C(=O)O [levothyroxine]
DILI +VE (5-8), DILI -VE (-4) [1]: +VE
DILI severity category [2]: vLess-DILI-Concern

CCC[C@@H]1C[C@@H](C(=O)N[C@@H]([C@H]2O[C@H](SC)[C@H](O)[C@@H](O)[C@H]2O)[C@@H](C)O)N(C)C1 [lincomycin]
DILI +VE (5-8), DILI -VE (-4) [1]: -VE
DILI severity category [2]: Ambiguous DILI-concern

CC(=O)NC[C@H]1CN(c2ccc(N3CCOCC3)c(F)c2)C(=O)O1 [linezolid]
DILI +VE (5-8), DILI -VE (-4) (in vivo): +VE
DILI severity category (in vivo): vLess-DILI-Concern

C[C@@H](Cc1ccccc1)NC(=O)[C@@H](N)CCCCN [lisdexamfetamine]
DILI +VE (5-8), DILI -VE (-4) [1]: -VE
DILI severity category [2]: Ambiguous DILI-concern

O=NN(CCCl)C(=O)NC1CCCCC1 [lomustine]
DILI +VE (5-8), DILI -VE (-4) (in vivo): +VE
DILI severity category (in vivo): vLess-DILI-Concern

N[C@@H](C(=O)N[C@@H]1C(=O)N2C(C(=O)O)=C(Cl)CC[C@H]12)c1ccccc1 [loracarbef]
DILI +VE (5-8), DILI -VE (-4) (in vivo): +VE
DILI severity category (in vivo): vLess-DILI-Concern

O=C1Nc2ccc(Cl)cc2C(c2ccccc2Cl)=NC1O (stereo not drawn) [lorazepam]
DILI +VE (5-8), DILI -VE (-4) [1]: -VE
DILI severity category [2]: Ambiguous DILI-concern

CN1CCN(C2=Nc3ccccc3Oc3ccc(Cl)cc32)CC1 [loxapine]
DILI +VE (5-8), DILI -VE (-4) (in vivo): -VE
DILI severity category (in vivo): Ambiguous DILI-concern

OC[C@@H](O)[C@@H](O)[C@H](O)[C@H](O)CO [mannitol]
DILI +VE (5-8), DILI -VE (-4) [1]: -VE
DILI severity category [2]: vNo-DILI-Concern

CCCCCc1cc(O)c2c(c1)OC(C)(C)[C@@H]1CCC(C)=C[C@@H]21 [marinol]
DILI +VE (5-8), DILI -VE (-4) (in vivo): -VE
DILI severity category (in vivo): Ambiguous DILI-concern

Cc1ccc(Cl)c(Nc2ccccc2C(=O)O)c1Cl [meclofenamic acid]
DILI +VE (5-8), DILI -VE (-4) [1]: -VE
DILI severity category [2]: Ambiguous DILI-concern

N[C@@H](Cc1ccc(N(CCCl)CCCl)cc1)C(=O)O [melphalan]
DILI +VE (5-8), DILI -VE (-4) [1]: +VE
DILI severity category [2]: vLess-DILI-Concern

CN1CCCC(CN2c3ccccc3Sc3ccccc32)C1 (stereo not drawn) [mepazine]
DILI +VE (5-8), DILI -VE (-4) [1]: +VE
DILI severity category [2]: vMost-DILI-Concern

C[N+]1(C)CCCC(OC(=O)C(O)(c2ccccc2)c2ccccc2)C1 (stereo not drawn) [mepenzolate]
DILI +VE (5-8), DILI -VE (-4) [1]: -VE
DILI severity category [2]: vNo-DILI-Concern

CCCC(C)(COC(N)=O)COC(N)=O [meprobamate]
DILI +VE (5-8), DILI -VE (-4) [1]: -VE
DILI severity category [2]: vNo-DILI-Concern

O=S(=O)(O)CCS [mesna]
DILI +VE (5-8), DILI -VE (-4) [3]: -VE
DILI severity category [4]: Ambiguous DILI-concern

CN1CCCCC1CCN1c2ccccc2Sc2ccc([S+](C)[O-])cc21 (stereo not drawn) [mesoridazine]
DILI +VE (5-8), DILI -VE (-4) [3]: -VE
DILI severity category [4]: Ambiguous DILI-concern

Cc1cc(C)cc(OCC2CNC(=O)O2)c1 (stereo not drawn) [metaxalone]
DILI +VE (5-8), DILI -VE (-4) [3]: +VE
DILI severity category [4]: vLess-DILI-Concern

CCC(=O)C(CC(C)N(C)C)(c1ccccc1)c1ccccc1 (stereo not drawn) [methadone]
DILI +VE (5-8), DILI -VE (-4) (in vivo): -VE
DILI severity category (in vivo): Ambiguous DILI-concern

CC(=O)/N=c1/sc(S(N)(=O)=O)nn1C [methazolamide]
DILI +VE (5-8), DILI -VE (-4) [3]: +VE
DILI severity category [4]: vLess-DILI-Concern

C1N2CN3CN1CN(C2)C3 [methenamine hippurate]
DILI +VE (5-8), DILI -VE (-4) [3]: -VE
DILI severity category [4]: Ambiguous DILI-concern

C=CCC1(C(C)C#CCC)C(=O)N=C(O)N(C)C1=O (stereo not drawn) [methohexital]
DILI +VE (5-8), DILI -VE (-4) [3]: -VE
DILI severity category [4]: Ambiguous DILI-concern

CN1C(=O)CC(C)(c2ccccc2)C1=O (stereo not drawn) [methsuximide]
DILI +VE (5-8), DILI -VE (-4) [3]: -VE
DILI severity category [4]: vNo-DILI-Concern

C[N@+]1(CC2CC2)CC[C@]23c4c5ccc(O)c4O[C@H]2C(=O)CC[C@@]3(O)[C@H]1C5 [methylnaltrexone bromide]
DILI +VE (5-8), DILI -VE (-4) [3]: -VE
DILI severity category [4]: vNo-DILI-Concern

COC(=O)C(c1ccccc1)C1CCCCN1 (stereo not drawn) [methylphenidate]
DILI +VE (5-8), DILI -VE (-4) (in vivo): +VE
DILI severity category (in vivo): vLess-DILI-Concern

C[C@H]1C[C@@H]2[C@H]([C@@H](O)C[C@@]3(C)[C@H]2CC[C@]3(O)C(=O)CO)[C@@]2(C)C=CC(=O)C=C12 [methylprednisolone]
DILI +VE (5-8), DILI -VE (-4) [3]: +VE
DILI severity category [4]: vLess-DILI-Concern

C[C@]12CCC(=O)C=C1CC[C@@H]1[C@@H]2CC[C@@]2(C)[C@H]1CC[C@]2(C)O [methyltestosterone]
DILI +VE (5-8), DILI -VE (-4) [3]: +VE
DILI severity category [4]: vLess-DILI-Concern

CC[C@@H](CO)NC(=O)[C@@H]1C=C2c3cccc4c3c(cn4C)C[C@H]2N(C)C1 [methysergide]
DILI +VE (5-8), DILI -VE (-4) [3]: -VE
DILI severity category [4]: vNo-DILI-Concern

Cc1ccccc1N1C(=O)c2cc(S(N)(=O)=O)c(Cl)cc2NC1C (stereo not drawn) [metolazone]
DILI +VE (5-8), DILI -VE (-4) [3]: -VE
DILI severity category [4]: Ambiguous DILI-concern

CC(C)(C(=O)c1cccnc1)c1cccnc1 [metyrapone]
DILI +VE (5-8), DILI -VE (-4) [3]: -VE
DILI severity category [4]: vNo-DILI-Concern

CCCCCOc1ccc(-c2cc(-c3ccc(C(=O)N[C@H]4C[C@@H](O)[C@@H](O)NC(=O)[C@@H]5[C@@H](O)[C@@H](C)CN5C(=O)[C@H]([C@H](O)CC(N)=O)NC(=O)[C@H]([C@H](O)[C@@H](O)c5ccc(O)c(OS(=O)(=O)O)c5)NC(=O)[C@@H]5C[C@@H](O)CN5C(=O)[C@H]([C@@H](C)O)NC4=O)cc3)no2)cc1 [micafungin] (X1-[Orn(4R-OH,5R-OH)]T[Hyp][hTyr(3S-OH,4S-OH,3'-OSO3H)][Gln(3R-OH)][Pro(3S-OH,4S-Me)]; lactam 1-C)
DILI +VE (5-8), DILI -VE (-4) [3]: +VE
DILI severity category [4]: vMost-DILI-Concern

OCCN1C[C@H](O)[C@@H](O)[C@H](O)[C@H]1CO [miglitol]
DILI +VE (5-8), DILI -VE (-4) [3]: -VE
DILI severity category [4]: vNo-DILI-Concern

CCCCN1C[C@H](O)[C@@H](O)[C@H](O)[C@H]1CO [miglustat]
DILI +VE (5-8), DILI -VE (-4) [3]: -VE
DILI severity category [4]: vNo-DILI-Concern

Clc1ccc(C(c2ccccc2Cl)C(Cl)Cl)cc1 (stereo not drawn) [mitotane]
DILI +VE (5-8), DILI -VE (-4) [3]: -VE
DILI severity category [4]: vNo-DILI-Concern

COc1cc2c(cc1OC)[C@@H](Cc1cc(OC)c(OC)c(OC)c1)[N+](C)(CCCOC(=O)CC/C=C/CCC(=O)OCCC[N+]1(C)CCc3cc(OC)c(OC)cc3[C@H]1Cc1cc(OC)c(OC)c(OC)c1)CC2 (stereo partly drawn) [mivacurium]
DILI +VE (5-8), DILI -VE (-4) [3]: -VE
DILI severity category [4]: vNo-DILI-Concern

CCOC(=O)[C@H](CCc1ccccc1)N[C@@H](C)C(=O)N1Cc2cc(OC)c(OC)cc2C[C@H]1C(=O)O [moexipril]
DILI +VE (5-8), DILI -VE (-4) [3]: -VE
DILI severity category [4]: Ambiguous DILI-concern
